Test results taken from PubChem BioAssay (NCI).
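Method: 48-hour compound exposure of cells in 96-well plates, five concentrations, linear interpolation of endpoints. Definition used: TGI = concentration required for complete inhibition of growth.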

Columns and labels:
Experiment in all cases: growth of human tumour cells (NCI), 48 h
M19-MEL melanoma = test system: M19-MEL melanoma
HOP-18 NSCLC = test system: HOP-18 NSCLC
KM20L2 colon = test system: KM20L2 colon
RXF-631 renal = test system: RXF-631 renal
SNB-78 CNS = test system: SNB-78 CNS
DMS 273 small cell lung = test system: DMS 273 small cell lung
LXFL 529 NSCLC = test system: LXFL 529 NSCLC
XF 498 CNS = test system: XF 498 CNS

SMILES: COc1cc(/C=C/C(=O)c2sc(-n3nc(-c4ccccc4)cc3-c3ccccc3)nc2C)ccc1O
- TGI (M19-MEL melanoma): > 100 µM
- TGI (HOP-18 NSCLC): > 100 µM
- TGI (KM20L2 colon): > 100 µM
- TGI (RXF-631 renal): > 100 µM
- TGI (SNB-78 CNS): > 100 µM
- TGI (DMS 273 small cell lung): > 100 µM

SMILES: COc1ccc(/C=C(\Cl)c2ccc(OC)c(OC)c2)cc1OC
- TGI (M19-MEL melanoma): > 100 µM
- TGI (KM20L2 colon): > 100 µM
- TGI (LXFL 529 NSCLC): > 100 µM
- TGI (DMS 273 small cell lung): > 100 µM

SMILES: c1ccc(Nc2nnc(CSc3nc(-c4ccccc4)c(-c4ccccc4)[nH]3)s2)cc1
- TGI (M19-MEL melanoma): 28.6 µM
- TGI (KM20L2 colon): 48.5 µM
- TGI (LXFL 529 NSCLC): 53.3 µM
- TGI (SNB-78 CNS): 79.9 µM
- TGI (DMS 273 small cell lung): 43.4 µM

SMILES: CCOC(=O)CSc1ccnc(=O)[nH]1
- TGI (XF 498 CNS): > 100 µM
- TGI (M19-MEL melanoma): > 100 µM
- TGI (KM20L2 colon): > 100 µM
- TGI (LXFL 529 NSCLC): > 100 µM
- TGI (SNB-78 CNS): > 100 µM
- TGI (DMS 273 small cell lung): > 100 µM

SMILES: CN(C(=O)C12C3C4C1C1C2C3C41I)C(C)(C)C (stereo unspecified)
- TGI (XF 498 CNS): > 100 µM
- TGI (M19-MEL melanoma): > 100 µM
- TGI (HOP-18 NSCLC): > 100 µM
- TGI (KM20L2 colon): > 100 µM
- TGI (LXFL 529 NSCLC): > 100 µM
- TGI (RXF-631 renal): > 100 µM
- TGI (SNB-78 CNS): > 100 µM
- TGI (DMS 273 small cell lung): > 100 µM

SMILES: C/C(=N\N)C(CN(C)C)C(c1ccccc1)c1c(O)c2ccccc2oc1=O (stereo unspecified)
- TGI (XF 498 CNS): 99.8 µM
- TGI (M19-MEL melanoma): > 100 µM
- TGI (HOP-18 NSCLC): > 100 µM
- TGI (KM20L2 colon): > 100 µM
- TGI (LXFL 529 NSCLC): > 100 µM
- TGI (RXF-631 renal): > 100 µM
- TGI (SNB-78 CNS): > 100 µM
- TGI (DMS 273 small cell lung): > 100 µM

SMILES: CCCCCCn1c(SCC)c2ccccc2c1-c1nc(F)nc(F)n1
- TGI (XF 498 CNS): > 100 µM
- TGI (M19-MEL melanoma): > 100 µM
- TGI (KM20L2 colon): > 100 µM
- TGI (LXFL 529 NSCLC): > 100 µM
- TGI (SNB-78 CNS): > 100 µM
- TGI (DMS 273 small cell lung): > 100 µM

SMILES: Cc1c2ccncc2cc2c1sc1ccncc12
- TGI (XF 498 CNS): 29.8 µM
- TGI (M19-MEL melanoma): 16.6 µM
- TGI (HOP-18 NSCLC): > 100 µM
- TGI (KM20L2 colon): 25.7 µM
- TGI (LXFL 529 NSCLC): 28.1 µM
- TGI (RXF-631 renal): > 40.9 µM
- TGI (SNB-78 CNS): 40.9 µM
- TGI (DMS 273 small cell lung): 11.1 µM

SMILES: COc1ccc(Br)c2c1CC(C(=O)O)CC2 (stereo unspecified)
- TGI (XF 498 CNS): > 100 µM
- TGI (HOP-18 NSCLC): > 100 µM
- TGI (KM20L2 colon): > 100 µM
- TGI (LXFL 529 NSCLC): > 100 µM
- TGI (SNB-78 CNS): > 100 µM
- TGI (DMS 273 small cell lung): > 100 µM

SMILES: NC(=S)NNC(=O)/C(=C/c1ccc(/C=C(\NC(=O)c2ccccc2)C(=O)NNC(N)=S)cc1)NC(=O)c1ccccc1
- TGI (XF 498 CNS): > 100 µM
- TGI (M19-MEL melanoma): > 100 µM
- TGI (HOP-18 NSCLC): > 100 µM
- TGI (KM20L2 colon): > 100 µM
- TGI (LXFL 529 NSCLC): > 100 µM
- TGI (SNB-78 CNS): > 100 µM
- TGI (DMS 273 small cell lung): > 100 µM

SMILES: CC1CC2OC(=O)C3CC(O)CC(=C23)[C@@]12C[C@@H](c1ccoc1)OC2=O (stereo partly specified)
- TGI (XF 498 CNS): > 100 µM
- TGI (M19-MEL melanoma): > 100 µM
- TGI (HOP-18 NSCLC): > 100 µM
- TGI (KM20L2 colon): > 100 µM
- TGI (LXFL 529 NSCLC): > 100 µM
- TGI (SNB-78 CNS): > 100 µM
- TGI (DMS 273 small cell lung): > 100 µM

SMILES: O=S(=O)([O-])[O-].[Fe+2].c1ccc(/C(=N\Nc2ccccn2)c2ccccn2)cc1
- TGI (M19-MEL melanoma): 4.25 µM
- TGI (HOP-18 NSCLC): 14.6 µM
- TGI (KM20L2 colon): 12.4 µM
- TGI (LXFL 529 NSCLC): 12.3 µM
- TGI (SNB-78 CNS): 12.1 µM
- TGI (DMS 273 small cell lung): 11.5 µM

SMILES: O=P(O)(OCC(O)O)OCC(O)O
- TGI (XF 498 CNS): > 100 µM
- TGI (M19-MEL melanoma): > 100 µM
- TGI (HOP-18 NSCLC): > 100 µM
- TGI (KM20L2 colon): > 100 µM
- TGI (LXFL 529 NSCLC): > 100 µM
- TGI (RXF-631 renal): > 100 µM
- TGI (SNB-78 CNS): > 100 µM
- TGI (DMS 273 small cell lung): > 100 µM

SMILES: C/C(CN1C(=O)c2ccccc2C1=O)=N\NS(=O)(=O)c1ccc(Br)cc1
- TGI (M19-MEL melanoma): > 100 µM
- TGI (HOP-18 NSCLC): > 100 µM
- TGI (KM20L2 colon): > 100 µM
- TGI (LXFL 529 NSCLC): > 100 µM
- TGI (SNB-78 CNS): > 100 µM
- TGI (DMS 273 small cell lung): > 100 µM
